According to PubChem BioAssay (NCI):
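A five-concentration, 48-hour dose response in 96-well plates underlies each endpoint, interpolated linearly between surrounding concentrations. GI50 marks 50% less growth. TGI denotes the concentration required for complete inhibition of growth.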

Legend:
Assay in all cases: DTP human tumour cell line panel, 48 h
TK-10 renal = system: TK-10 renal
KM12 colon = system: KM12 colon
MDA-MB-231 breast = system: MDA-MB-231 breast
HOP-62 NSCLC = system: HOP-62 NSCLC
OVCAR-3 ovarian = system: OVCAR-3 ovarian
HL-60(TB) leukemia = system: HL-60(TB) leukemia
BT-549 breast = system: BT-549 breast
PC-3 prostate = system: PC-3 prostate
ACHN renal = system: ACHN renal
DU-145 prostate = system: DU-145 prostate
NCI-H522 lung = system: NCI-H522 lung
NCI-H460 lung = system: NCI-H460 lung
T-47D breast = system: T-47D breast
CAKI-1 renal = system: CAKI-1 renal

| Compound | TGI (TK-10 renal) | TGI (KM12 colon) | TGI (MDA-MB-231 breast) | TGI (HOP-62 NSCLC) | TGI (OVCAR-3 ovarian) | TGI (HL-60(TB) leukemia) | TGI (BT-549 breast) | TGI (PC-3 prostate) | TGI (ACHN renal) | TGI (DU-145 prostate) | TGI (NCI-H522 lung) | TGI (NCI-H460 lung) | TGI (T-47D breast) | TGI (CAKI-1 renal) | GI50 (HOP-62 NSCLC) | GI50 (OVCAR-3 ovarian) | GI50 (DU-145 prostate) |
| --- | --- | --- | --- | --- | --- | --- | --- | --- | --- | --- | --- | --- | --- | --- | --- | --- | --- |
| Cc1ccc(NC(=O)c2cccc(OP(=O)(O)Nc3ccc(C)cc3)c2)cc1 | > 100 µM | > 100 µM | > 100 µM | > 100 µM | > 100 µM | > 100 µM | > 100 µM | > 100 µM | > 100 µM | > 100 µM | > 100 µM | > 100 µM | > 100 µM | > 100 µM |  |  |  |
| CCNc1cc2c(cc1O)CC[C@@H]1[C@@H]2CC[C@]2(C)[C@@H](O)CC[C@@H]12 | 34 µM | 22.4 µM | 24.9 µM | 23.2 µM | 3.63 µM | 8.12 µM | 43.3 µM | 22.8 µM | 22 µM | 20.5 µM | 11.8 µM | 13.7 µM | > 55.3 µM | 27.2 µM | 0.584 µM | 0.815 µM | 3.84 µM |
| Cc1nn(C(=O)Cc2ccccc2)c2c1C(c1ccc(N(C)C)cc1)SC(N)=N2 (configuration not stated) | > 100 µM | > 100 µM | > 100 µM | > 100 µM |  | > 100 µM | > 100 µM | > 100 µM | > 100 µM | > 100 µM | > 100 µM | > 100 µM | > 100 µM | > 100 µM |  |  |  |
| NC(N)=N/N=C/c1c(-c2cccc([N+](=O)[O-])c2)nc2n1CCS2 | 47.4 µM | 68.5 µM | 44.5 µM | > 100 µM | 63 µM | 45.6 µM | 32.2 µM | 44.5 µM | 44.2 µM | 36.4 µM | 32.2 µM | 53.5 µM | 26.1 µM | 68.4 µM |  |  |  |
| CCN(CC)CC(=O)O[C@]1(CC)C(=O)OCc2c1cc1n(c2=O)Cc2cc3ccccc3nc2-1 | 24.9 µM | 0.862 µM | 31.3 µM | < 0.048 µM | 0.947 µM | 0.401 µM | 1.93 µM | > 100 µM | 0.146 µM | 0.21 µM | 1.44 µM | 0.129 µM | 0.404 µM | 0.145 µM |  |  |  |
| CC12CCC([C@H](C(O)C3CCCCC3)C1=O)C2(C)C (some centres not stated) | > 100 µM | > 100 µM | > 100 µM | > 100 µM | > 100 µM | 42.4 µM | > 100 µM | > 100 µM | > 100 µM | > 100 µM | > 100 µM | > 100 µM | > 100 µM | > 100 µM |  |  |  |
| CC(C)Oc1ccc2c(c1)OCC1Cc3ccccc3OC21 (configuration not stated) | > 100 µM | > 100 µM | > 100 µM | > 100 µM | > 100 µM | > 100 µM | > 100 µM | > 100 µM |  | > 100 µM | > 100 µM |  | > 100 µM | > 100 µM |  |  |  |
| CC(C)(C)c1ccc(-c2nc3ccc(Cl)cc3c(=O)o2)cc1 | > 100 µM | 19.2 µM | 18.6 µM | 49.7 µM | 34.6 µM | 42.4 µM | 63.6 µM | 92.1 µM | 61.7 µM | 92.4 µM | 29.7 µM | > 100 µM | > 100 µM | 63.9 µM |  |  |  |
